Where a name gives a salt, the structure may show the parent alone. Calls of active or inactive are those of the source. The calls are words filed in the database; no cut-off is given here.
Columns and labels:
COLO 205 = test: Cytotoxicity against human COLO205 assessed as inhibition of cell growth; format: functional, cell-based
[1] = Cytotoxicity against human DWD assessed as inhibition of cell growth; format: functional
HT-1080 = test: Cytotoxicity against human HT1080 assessed as inhibition of cell growth; format: functional, cell-based
HOP-62 = test: Cytotoxicity against human HOP62 assessed as inhibition of cell growth; format: functional, cell-based
[2] = biological target: DNA topoisomerase 2-alpha (Rattus norvegicus) (UniProt P41516); test: Inhibition of rat brain topoisomerase 2 assessed as relaxation of supercoiled pBR322 DNA
Chain of DNA topoisomerase 2-alpha (Rattus norvegicus) (P41516 whole entry): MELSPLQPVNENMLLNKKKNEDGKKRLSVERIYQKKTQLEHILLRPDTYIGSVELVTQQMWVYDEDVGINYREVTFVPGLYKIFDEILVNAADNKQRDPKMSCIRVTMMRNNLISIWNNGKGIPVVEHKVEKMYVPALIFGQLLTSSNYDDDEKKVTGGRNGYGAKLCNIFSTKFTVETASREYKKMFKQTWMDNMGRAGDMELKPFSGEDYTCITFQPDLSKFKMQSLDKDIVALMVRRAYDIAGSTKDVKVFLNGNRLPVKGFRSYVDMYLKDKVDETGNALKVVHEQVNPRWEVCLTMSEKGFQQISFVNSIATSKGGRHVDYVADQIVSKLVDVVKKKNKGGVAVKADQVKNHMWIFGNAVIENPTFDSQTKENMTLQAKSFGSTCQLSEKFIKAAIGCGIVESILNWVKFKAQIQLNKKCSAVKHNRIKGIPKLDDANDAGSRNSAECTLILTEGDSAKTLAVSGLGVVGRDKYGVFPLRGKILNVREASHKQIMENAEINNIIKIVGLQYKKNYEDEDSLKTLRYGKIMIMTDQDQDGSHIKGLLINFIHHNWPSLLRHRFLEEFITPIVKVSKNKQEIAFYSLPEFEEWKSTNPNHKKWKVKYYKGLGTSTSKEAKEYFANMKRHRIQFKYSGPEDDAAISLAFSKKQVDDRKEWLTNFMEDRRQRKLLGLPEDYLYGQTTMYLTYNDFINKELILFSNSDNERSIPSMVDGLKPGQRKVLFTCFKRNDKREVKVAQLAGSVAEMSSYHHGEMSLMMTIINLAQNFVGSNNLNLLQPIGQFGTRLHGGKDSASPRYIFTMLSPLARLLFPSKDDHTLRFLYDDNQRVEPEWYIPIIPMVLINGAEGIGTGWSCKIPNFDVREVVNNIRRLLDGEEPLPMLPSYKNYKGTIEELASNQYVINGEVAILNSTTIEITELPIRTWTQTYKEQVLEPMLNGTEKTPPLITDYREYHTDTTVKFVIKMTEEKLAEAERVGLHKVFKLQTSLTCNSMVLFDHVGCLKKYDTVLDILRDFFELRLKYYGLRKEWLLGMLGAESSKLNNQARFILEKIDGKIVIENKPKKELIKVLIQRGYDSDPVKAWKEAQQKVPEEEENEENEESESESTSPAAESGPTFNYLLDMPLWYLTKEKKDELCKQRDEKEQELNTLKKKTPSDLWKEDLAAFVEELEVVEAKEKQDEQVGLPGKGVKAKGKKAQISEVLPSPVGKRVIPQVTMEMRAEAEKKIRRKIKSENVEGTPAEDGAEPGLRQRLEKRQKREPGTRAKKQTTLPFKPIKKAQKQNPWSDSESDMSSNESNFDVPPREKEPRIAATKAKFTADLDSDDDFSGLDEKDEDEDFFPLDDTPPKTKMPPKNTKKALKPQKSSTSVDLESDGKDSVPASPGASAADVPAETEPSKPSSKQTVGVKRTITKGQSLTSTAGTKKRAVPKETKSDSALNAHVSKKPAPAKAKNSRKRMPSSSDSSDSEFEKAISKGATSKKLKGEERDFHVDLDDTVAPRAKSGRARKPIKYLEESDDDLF

SMILES	IC50 (COLO 205) [µM]	IC50 [1] [µM]	IC50 (HT-1080) [µM]	IC50 (HOP-62) [µM]	inhibition [2]
COc1cccc2c1C(=O)c1c(O)c3c(c(O)c1C2=O)C[C@@](O)(C(=O)CO)C[C@@H]3O[C@H]1C[C@H](N)[C@H](O)[C@H](C)O1 [DOXORUBICIN HYDROCHLORIDE]	5.1	2.8	4.7	5.4	–
COc1ccc2nc(-c3ccc(N[C@@H]4c5cc6c(cc5[C@@H](c5cc(OC)c(OC)c(OC)c5)[C@H]5C(=O)OC[C@@H]54)OCO6)cc3)sc2c1	7	5.2	9.5	15.2	–
COc1cc([C@@H]2c3cc4c(cc3[C@@H](Nc3ccc(-c5nc6c(Cl)cccc6s5)cc3)[C@H]3COC(=O)[C@H]23)OCO4)cc(OC)c1OC	7.1	7.3	9.1	60.3	–
COc1cc([C@@H]2c3cc4c(cc3[C@@H](Nc3ccc(-c5nc6ccccc6s5)cc3Br)[C@H]3COC(=O)[C@H]23)OCO4)cc(OC)c1O	–	–	–	–	Active
COc1cc([C@@H]2c3cc4c(cc3[C@@H](Nc3ccc(-c5nc6c(Cl)cccc6s5)cc3)[C@H]3COC(=O)[C@H]23)OCO4)cc(OC)c1O	8.3	9.1	> 80	10.1	–
COc1ccc2nc(-c3ccc(N[C@@H]4c5cc6c(cc5[C@@H](c5cc(OC)c(O)c(OC)c5)[C@H]5C(=O)OC[C@@H]54)OCO6)cc3)sc2c1	–	–	–	–	Active
COc1cc([C@@H]2c3cc4c(cc3[C@H](O)[C@H]3COC(=O)[C@H]23)OCO4)cc(OC)c1OC [PODOFILOX]	5	6.1	8.1	13.1	–
COc1cc([C@@H]2c3cc4c(cc3[C@@H](Nc3ccc(-c5nc6ccccc6s5)c(Cl)c3)[C@H]3COC(=O)[C@H]23)OCO4)cc(OC)c1O	8.3	6.5	> 80	8.6	–
COc1cc([C@@H]2c3cc4c(cc3[C@@H](Nc3ccc(-c5nc6ccccc6s5)cc3)[C@H]3COC(=O)[C@H]23)OCO4)cc(OC)c1OC	8.1	22	8.2	> 80	Active
COc1cc([C@@H]2c3cc4c(cc3[C@@H](Nc3ccc(-c5nc6ccccc6s5)cc3)[C@H]3COC(=O)[C@H]23)OCO4)cc(OC)c1O	2.7	2.3	9.7	30.1	Active

Reference: ChEMBL document CHEMBL1641597, “An efficient one-pot synthesis of benzothiazolo-4β-anilino-podophyllotoxin congeners: DNA topoisomerase-II inhibition and anticancer activity” (Bioorg Med Chem Lett, 2011)
